From ChEMBL document CHEMBL1201862, “PubChem BioAssay data set” (2004)
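Where inhibition never reached the appropriate level, the endpoint shown equals the highest concentration tested. Otherwise, values were interpolated linearly from a five-concentration, 48-hour dose response in 96-well plates. GI50: concentration for 50% inhibition of growth.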 Active and inactive are the calls of the source. No stated cut-off is given here; in the data, active = GI50 up to about 1.1 µM and inactive = higher.

Assays:
Test in all cases: NCI anticancer screen, dose series, 48 h
CAKI-1 = system: CAKI-1
NCI-H226 = system: NCI-H226
RXF 393 = system: RXF 393
SF-268 = system: SF-268
MDA-MB-231 = system: MDA-MB-231
U-251 = system: U-251
T47D = system: T47D
Hs-578T = system: Hs-578T
HL-60 = system: HL-60
K562 = system: K562
SNB-19 = system: SNB-19
A549 = system: A549
OVCAR-8 = system: OVCAR-8
SW-620 = system: SW-620
BT-549 = system: BT-549
MDA-MB-435 = system: MDA-MB-435
SNB-75 = system: SNB-75
HOP-92 = system: HOP-92
SF-539 = system: SF-539
NCI-H23 = system: NCI-H23

Row | SMILES | GI50 (CAKI-1) | GI50 (NCI-H226) | GI50 (RXF 393) | GI50 (SF-268) | GI50 (MDA-MB-231) | GI50 (U-251) | GI50 (T47D) | GI50 (Hs-578T) | GI50 (HL-60) | GI50 (K562) | GI50 (SNB-19) | GI50 (A549) | GI50 (OVCAR-8) | GI50 (SW-620) | GI50 (BT-549) | GI50 (MDA-MB-435) | GI50 (SNB-75) | GI50 (HOP-92) | GI50 (SF-539) | GI50 (NCI-H23)
1 | CCc1nc2cc(/N=N/c3c(O)ccc4ccccc34)ccc2[nH]1 | 22.4 µM (inactive) | 22.3 µM (inactive) | 12.6 µM (inactive) | 22.2 µM (inactive) | 20.7 µM (inactive) | 16 µM (inactive) | 24.3 µM (inactive) | 21.1 µM (inactive) | 2.4 µM (inactive) | 8.59 µM (inactive) | 31.3 µM (inactive) | 21.4 µM (inactive) | 14.5 µM (inactive) | 22.5 µM (inactive) | 18.7 µM (inactive) | 19.7 µM (inactive) | 20.6 µM (inactive) | 20.5 µM (inactive) | 18.1 µM (inactive) | 21.2 µM (inactive)
2 | CC(=O)O[C@H]1C(=O)[C@@]2(C)[C@H]([C@H](OC(=O)c3ccccc3)[C@]3(O)C[C@H](OC(=O)[C@H](O)[C@@H](NC(=O)CC(C)C)c4ccccc4)C(C)=C1C3(C)C)[C@]1(OC(C)=O)CO[C@@H]1C[C@@H]2O | 0.378 µM (active) | 0.038 µM (active) | 0.0141 µM (active) | 0.00486 µM (active) | > 10 µM (inactive) | 0.00879 µM (active) | 0.00399 µM (active) | 0.0018 µM (active) | 0.00111 µM (active) | 0.00179 µM (active) | 0.607 µM (active) | 0.00637 µM (active) | 0.00548 µM (active) | 0.00289 µM (active) | 0.248 µM (active) | < 0.001 µM (active) | < 0.001 µM (active) | 0.508 µM (active) | 0.00204 µM (active) | 0.00321 µM (active)
3 | COc1cccc(C2c3cc4c(cc3OC(Nc3ccccc3)C2C)OCO4)c1OC (stereo not given) | 3.87 µM (inactive) | 1.84 µM (inactive) | 3.66 µM (inactive) | 8.73 µM (inactive) | 13.7 µM (inactive) | 5.94 µM (inactive) | 5.14 µM (inactive) | 3.08 µM (inactive) | 2.1 µM (inactive) | 2.64 µM (inactive) | > 100 µM (inactive) | 6.04 µM (inactive) | 16.3 µM (inactive) | 7.85 µM (inactive) | 9.12 µM (inactive) | 14.8 µM (inactive) | 20.5 µM (inactive) | 5.43 µM (inactive) | 13.2 µM (inactive) | 42 µM (inactive)
